Tests used:
[1] = target: GFLOMT1 (Glaucium flavum, UniProt A0A0H4IRD0); assay: Standard OMT assay, substrate specificity of recombinant GFLOMT1; type: biochemical; conditions: for conversion of substrate by GFLOMT1: standard OMT assay, in the presence of SAM; for Substrate specificity, enzyme GFLOMT1: substrate conversion in the standard OMT assay in the presence of SAM (percent)
From the text: (§1) Full-length cDNAs for the seven GFLOMT candidates (see: Example 6) were cloned into the pRSETA expression vector with an N-terminal His_tag translational fusion and expressed in E. coli. Recombinant GFLOMTs were purified from total protein extracts using a cobalt-affinity resin.

[2] = target: GFLOMT6 (Glaucium flavum, UniProt A0A0H4IRD2); assay: Standard OMT assay, substrate specificity of recombinant GFLOMT6; type: biochemical; conditions: for conversion of substrate by GFLOMT6 / acceptance as substrate by GFLOMT6 (in words): standard OMT assay; for Substrate specificity, enzyme GFLOMT6: substrate conversion in the standard OMT assay (percent)
From the text: as §1

[3] = target: T1, GFLOMT2 (Glaucium flavum, UniProt A0A0H4ILZ3); assay: Standard OMT assay, substrate specificity of recombinant GFLOMT2; type: biochemical; conditions: for conversion of substrate by GFLOMT2: standard OMT assay; for Substrate specificity, enzyme GFLOMT2: substrate conversion in the standard OMT assay (percent)
T1 sequence (A0A0H4ILZ3 1-348): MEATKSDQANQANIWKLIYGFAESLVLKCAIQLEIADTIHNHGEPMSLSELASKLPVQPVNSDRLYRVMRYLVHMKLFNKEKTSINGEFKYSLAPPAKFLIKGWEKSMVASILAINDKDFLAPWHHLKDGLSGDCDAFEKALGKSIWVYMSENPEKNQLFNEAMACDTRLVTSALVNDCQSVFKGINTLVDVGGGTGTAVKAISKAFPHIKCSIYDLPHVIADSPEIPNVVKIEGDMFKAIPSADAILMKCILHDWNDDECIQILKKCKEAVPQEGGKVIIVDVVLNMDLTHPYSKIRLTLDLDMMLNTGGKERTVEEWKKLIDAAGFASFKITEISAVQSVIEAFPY
From the text: as §1

[4] = target: T1, GFLOMT2; conditions: read-out: Km of GFLOMT2 for substrate; preferred substrate yielding single reaction product
[5] = system: GFLOMT7; assay: Standard OMT assay, substrate specificity of recombinant GFLOMT7; type: biochemical, Glaucium flavum; conditions: for conversion of substrate by GFLOMT7: standard OMT assay; for Substrate specificity, enzyme GFLOMT7: substrate conversion in the standard OMT assay (percent)
From the text: as §1

Row | Structure (SMILES) | conversion of substrate by GFLOMT1 [1] [%] | Substrate specificity, enzyme GFLOMT1 [1] | conversion of substrate by GFLOMT6 [2] [%] | Substrate specificity, enzyme GFLOMT6 [2] | conversion of substrate by GFLOMT2 [3] [%] | Substrate specificity, enzyme GFLOMT2 [3] | acceptance as substrate by GFLOMT6 (in words) [2] | Km [4] [µM] | conversion of substrate by GFLOMT7 [5] [%] | Substrate specificity, enzyme GFLOMT7 [5]
1 | COc1cc2c(cc1O)C(Cc1ccc(O)c(O)c1)N(C)CC2 (racemic) [(R,S)-6-O-Methyllaudanosoline, 6-O-Methyllaudanosoline] | 68 | 68 | 23 | 23 | 14 | 14 |  |  |  | 
2 | COc1cc2c(cc1O)C(Cc1ccc(O)c(O)c1)NCC2 (racemic) [(R,S)-6-O-Methylnorlaudanosoline, 6-O-Methylnorlaudanosoline] | 87 | 87 |  |  | 1 | 1 | did not accept |  |  | 
3 | Oc1ccc(CC2NCCc3cc(O)c(O)cc32)cc1O (racemic) [(R,S)-Norlaudanosoline, Norlaudanosoline] | 96 | 96 |  |  | 100 | 100 | did not accept | 15 |  | 
4 | COc1ccc(C[C@@H]2NCCc3cc(OC)c(O)cc32)cc1O (racemic) [(R,S)-Norreticuline, Norreticuline] |  |  | 36 | 36 |  |  |  |  |  | 
5 | COc1cc2c(cc1O)C1Cc3ccc(OC)c(O)c3CN1CC2 (racemic) [(R,S)-Scoulerine, Scoulerine] | 32 | 32 | 100 | 100 | 75 | 75 |  |  | 12 | 12
6 | COc1cc2c(cc1O)[C@@H]1Cc3ccc(OC)c(OC)c3CN1CC2 (racemic) [(R,S)-Tetrahydrocolubamine, Tetrahydrocolumbamine] | 19 | 19 | 90 | 91 | 32 | 32 |  |  | 8 | 8
7 | COc1ccc(C[C@H]2c3cc(O)c(OC)cc3CCN2C)cc1O [(S)-Reticuline, Reticuline] | 6 | 6 | 97 | 97 | 22 | 22 |  |  |  | 

Reference: patent US10487345B2, “Methods for making and using polynucleotide sequences in the synthesis of alkaloid compounds” (priority 2014, dated 2019)
